Patent EP4663632A1, “COMPOUNDS USEFUL FOR THE MODULATION OF THE ACTIVITY OF STING” (Sulis Therapeutics ApS, priority 2024, dated 2025)

Tests used:
STING = STING (Homo sapiens, UniProt Q86WV6); test: Western Blot analysis of inhibition of STING activation in HFF-1 cells; assay type: cell-based; parameters: host or cells: HFF-1 human foreskin fibroblasts; conditions: for STING, TBK1 and IRF1 phosphorylation: 2 h or 5 h; for phosphorylation of STING, IRF1 or TBK1 (agonism): compound as single agent, no activation
STING, sequence (Q86WV6 whole entry, the tested form may be a part): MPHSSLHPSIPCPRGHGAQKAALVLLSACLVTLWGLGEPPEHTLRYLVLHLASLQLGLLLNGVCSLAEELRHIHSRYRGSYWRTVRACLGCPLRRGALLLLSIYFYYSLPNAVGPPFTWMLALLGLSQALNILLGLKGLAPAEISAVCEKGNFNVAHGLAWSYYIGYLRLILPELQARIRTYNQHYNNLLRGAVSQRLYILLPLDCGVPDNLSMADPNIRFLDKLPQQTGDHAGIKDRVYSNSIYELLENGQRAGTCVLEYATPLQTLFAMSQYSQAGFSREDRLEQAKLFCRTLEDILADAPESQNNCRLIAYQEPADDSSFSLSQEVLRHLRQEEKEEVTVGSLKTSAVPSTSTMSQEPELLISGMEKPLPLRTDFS
Description: To assess whether S1 STING ligands inhibit STING activation, primary human skin fibroblasts (Figure 5) or HFF-1 cells (Figure 6) were treated with various compounds which comprise only an S1 ligand domain and a Linker domain before undergoing Western Blot analysis as described below.
The cells were lysed and analysed on WB. […] The WB membrane was probed for p-STING, STING, p-IRF3, p-TBK1, and Vinculin.

[1] = target: C-terminal domain (CTD) of human STING (Homo sapiens, UniProt Q86WV6); test: STING binding FP assay III; parameters: recombinant human STING protein (155-379); conditions: 10 nM STING (FP assay III according to the text); read-out: STING binding FP assay II, IC50
C-terminal domain (CTD) of human STING, sequence (Q86WV6 155-379): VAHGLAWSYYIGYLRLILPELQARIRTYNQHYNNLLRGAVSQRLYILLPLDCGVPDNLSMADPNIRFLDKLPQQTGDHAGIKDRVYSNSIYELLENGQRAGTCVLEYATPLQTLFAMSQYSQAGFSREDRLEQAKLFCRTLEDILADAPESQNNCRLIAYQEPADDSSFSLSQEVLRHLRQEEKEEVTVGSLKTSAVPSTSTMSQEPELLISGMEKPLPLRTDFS
Description: The interaction between molecules and the C-terminal domain (CTD) of human STING was evaluated using a competition binding assay. In this assay, recombinant human STING protein (155-379) and a STING binding fluorescent probe were employed. Upon binding of the probe to STING, the rotation of the fluorescent probe is slowed due to the larger molecular size of the protein-bound complex. As a result, emitted light retains its plane of polarization, leading to an increase in fluorescence polarization. Molecules competing for the probe binding site displace the probe, which leads to rapid randomization of the polarization plane of the emitted light and a subsequent decrease in measured fluorescence polarization signal. Change in polarization was measured, allowing a comparative evaluation of the binding affinities of different compounds to the target protein.
The assay was performed in 96-well plates (ThermoFisher, cat.# 237108) containing 100µl : 10 µL test compound in 10% DMSO and buffer A (150 mM NaCl, 50 mM HEPES pH 7.5, 1 mM DTT) + 90 µL prepared master mix solution of: 4 nM fluorescein-labelled STING ligand (Probe 1; synthesis described above) in buffer A + 0.055% Tween-20 (v/v) and 35 nM STING in buffer A. Post mixing, plates were agitated at 600rpm and incubated for 20 min at room temperature. Subsequent measurements of the fluorescence polarization signal were made on a BioTek Synergy-H1 plate reader, using a polarization filter; Exc: 485/20 nm, Em: […]) with a gain-setting of 75. IC50 values were determined using a standard non-linear regression four-parameter curve fit in Graphpad Prism.
The procedure for STING binding FP assay III is the same as described for STING binding FP assay I, except for a lower STING concentration. In STING binding FP assay III, a concentration of 10 nM STING in buffer A was used.

[2] = 5 µM for 15 min prior to 300 nM diABZI
[3] = 5 µM for 15 min prior to 8 µg/mL cGAMP

IC50 [1] [nM] | Molecule | STING, TBK1 and IRF1 phosphorylation (STING; [2]) | STING, TBK1 and IRF1 phosphorylation (STING; [3]) | phosphorylation of STING, IRF1 or TBK1 (agonism) (STING)
 | CCn1nc(C)cc1C(=O)N=c1n(C)c2cc(C(N)=O)ccc2n1CCC(CCn1c(=NC(=O)c2cc(C)nn2CC)n(C)c2cc(C(N)=O)ccc21)OCC(=O)N1CCOC[C@@H]1c1ccccc1 (stereo partly drawn) [Example A30, 1-(3-{2-[(S)-3-Phenyl-4-morpholinyl]-2-oxoethoxy}-5-{5-carbamoyl-2-[(1-ethyl-3-methyl-5-pyrazolyl)carbonylimino]-3-methyl-2,3-dihydro-1H-1,3-benzimidazol-1-yl}pentyl)-2-[(1-ethyl-3-methyl-5-pyrazolyl)carbonylimino]-3-methyl-2,3-dihydro-1H-1,3-benzimidazole-5-carboxamide] | lower compared to cells treated with diABZI c3 alone | lower compared to cells treated with cGAMP alone | no phosphorylation of STING, IRF1 or TBK1 was observed
2.6 | CCn1nc(C)cc1C(=O)N=c1n(C)c2cc(C(N)=O)ccc2n1CCC(CCn1c(=NC(=O)c2cc(C)nn2CC)n(C)c2cc(C(N)=O)ccc21)OCC(=O)NCCOCCOCCOCCOCCC(=O)NCCC1CCN(c2ccc(C(=O)NC3CCC(=O)NC3=O)c(F)c2)CC1 (centres unmarked) [Example 38, N-(2-{1-[4-(N-2,6-Dioxo-3-piperidylcarbamoyl)-3-fluorophenyl]-4-piperidyl}ethyl)15-{[(3-{5-carbamoyl-2-[(1-ethyl-3-methyl-5-pyrazolyl)carbonylimino]-3-methyl-2,3-dihydro-1 H-1 ,3-benzimidazol-1-yl}-1-(2-{5-carbamoyl-2-[(1-ethyl-3-methyl-5-pyrazolyl)carbonylimino]-3-methyl-2,3-dihydro-1 H-1 ,3-benzimidazol-1-yl}ethyl)propoxy)methyl]carbonylamino}-4,7,10,13-tetraoxapentadecanamide] |  |  | 
 | CCn1nc(C)cc1C(=O)N=c1n(C)c2cc(C(N)=O)ccc2n1CCC(CCn1c(=NC(=O)c2cc(C)nn2CC)n(C)c2cc(C(N)=O)ccc21)OCC(=O)N1CCC[C@H]1c1ccccc1 (stereo partly drawn) [Example A25, 1-(3-{2-[(S)-2-Phenyl-1-pyrrolidinyl]-2-oxoethoxy}-5-{5-carbamoyl-2-[(1-ethyl-3-methyl-5-pyrazolyl)carbonylimino]-3-methyl-2,3-dihydro-1H-1,3-benzimidazol-1-yl}pentyl)-2-[(1-ethyl-3-methyl-5-pyrazolyl)carbonylimino]-3-methyl-2,3-dihydro-1H-1,3-benzimidazole-5-carboxamide] | lower compared to cells treated with diABZI c3 alone | lower compared to cells treated with cGAMP alone (with the exception of TBK1 in lane A25) | no phosphorylation of STING, IRF1 or TBK1 was observed
3.7 | CCn1nc(C)cc1C(=O)N=c1n(C)c2cc(C(N)=O)ccc2n1CCC(CCn1c(=NC(=O)c2cc(C)nn2CC)n(C)c2cc(C(N)=O)ccc21)OCC(=O)NCCOCCOCCOCCOCCC(=O)NCCOCCNc1ccc(C(=O)NC2CCC(=O)NC2=O)c(OC)c1 (centres unmarked) [Example 34, N-(2-{2-[4-(N-2,6-Dioxo-3-piperidylcarbamoyl)-3-anisidino]ethoxy}ethyl)15-{[(3-{5-carbamoyl-2-[(1-ethyl-3-methyl-5-pyrazolyl)carbonylimino]-3-methyl-2,3-dihydro-1H-1 ,3-benzimidazol-1-yl}-1-(2-{5-carbamoyl-2-[(1-ethyl-3-methyl-5-pyrazolyl)carbonylimino]-3-methyl-2,3-dihydro-1H-1 ,3-benzimidazol-1-yl}ethyl)propoxy)methyl]carbonylamino}-4,7,10,13-tetraoxapentadecanamide] |  |  | 
10.3 | CCn1nc(C)cc1C(=O)N=c1n(C)c2cc(C(N)=O)ccc2n1CCC(CCn1c(=NC(=O)c2cc(C)nn2CC)n(C)c2cc(C(N)=O)ccc21)OCC(=O)NCCOCCOCCOCCOCCC(=O)NCCC1CCN(c2ccc(C(=O)NC3CCC(=O)NC3=O)c(OC)c2)CC1 (centres unmarked) [Example 35, N-(2-{1-[4-(N-2,6-Dioxo-3-piperidylcarbamoyl)-3-methoxyphenyl]-4-piperidyl}ethyl)15-{[(3-{5-carbamoyl-2-[(1-ethyl-3-methyl-5-pyrazolyl)carbonylimino]-3-methyl-2,3-dihydro-1H-1 ,3-benzimidazol-1-yl}-1-(2-{5-carbamoyl-2-[(1-ethyl-3-methyl-5-pyrazolyl)carbonylimino]-3-methyl-2,3-dihydro-1H-1 ,3-benzimidazol-1-yl}ethyl)propoxy)methyl]carbonylamino}-4,7,10,13-tetraoxapentadecanamide] |  |  | 
10 | CCn1nc(C)cc1C(=O)N=c1n(C)c2cc(C(N)=O)ccc2n1CCC(CCn1c(=NC(=O)c2cc(C)nn2CC)n(C)c2cc(C(N)=O)ccc21)OCC(=O)NCCOCCOCCOCCOCCC(=O)N1CCN(C2CCN(c3ccc(C(=O)NC4CCC(=O)NC4=O)c(OC)c3)CC2)CC1 (centres unmarked) [Example 36, N-[15-(4-{1-[4-(N-2,6-Dioxo-3-piperidylcarbamoyl)-3-methoxyphenyl]-4-piperidyl}-1-piperazinyl)-15-oxo-3,6,9,12-tetraoxapentadecyl](3-{5-carbamoyl-2-[(1-ethyl-3-methyl-5-pyrazolyl)carbonylimino]-3-methyl-2,3-dihydro-1H-1 ,3-benzimidazol-1-yl}-1-(2-{5-carbamoyl-2-[(1-ethyl-3-methyl-5-pyrazolyl)carbonylimino]-3-methyl-2,3-dihydro-1 H-1 ,3-benzimidazol-1-yl}ethyl)propoxy)acetamide] |  |  | 
2.2 | CCn1nc(C)cc1C(=O)Nc1nc2cc(C(N)=O)ccc2n1CCC(CCn1c(NC(=O)c2cc(C)nn2CC)nc2cc(C(N)=O)ccc21)OCC(=O)NCCOCCOCCOCC(=O)N[C@H](C(=O)N1C[C@H](O)C[C@H]1C(=O)NCc1ccc(-c2scnc2C)cc1)C(C)(C)C [Example 4, N-[(S)-1-{[(2S,4R)-4-Hydroxy-2-({[p-(4-methyl-1,3-thiazol-5-yl)phenyl]methyl}carbamoyl)-1-pyrrolidinyl]carbonyl}-2,2-dimethylpropyl]11-[({3-[5-carbamoyl-2-(1-ethyl-3-methyl-5-pyrazolylcarbonylamino)-1H-1,3-benzimidazol-1-yl]-1-{2-[5-carbamoyl-2-(1-ethyl-3-methyl-5-pyrazolylcarbonylamino)-1H-1,3-benzimidazol-1-yl]ethyl}propoxy}methyl)carbonylamino]-3,6,9-trioxaundecanamide] |  |  | 

Molecule | IC50 [1] [nM] | STING, TBK1 and IRF1 phosphorylation (STING; [2]) | STING, TBK1 and IRF1 phosphorylation (STING; [3]) | phosphorylation of STING, IRF1 or TBK1 (agonism) (STING)
N-(2-{1-[4-(N-2,6-Dioxo-3-piperidylcarbamoyl)-3-chlorophenyl]-4-piperidyl}ethyl)15-{[(3-{5-carbamoyl-2-[(1-ethyl-3-methyl-5-pyrazolyl)carbonylimino]-3-methyl-2,3-dihydro-1H-1 ,3-benzimidazol-1-yl}-1-(2-{5-carbamoyl-2-[(1-ethyl-3-methyl-5-pyrazolyl)carbonylimino]-3-methyl-2,3-dihydro-1H-1 ,3-benzimidazol-1-yl}ethyl)propoxy)methyl]carbonylamino}-4,7,10,13-tetraoxapentadecanamide [Example 37] | 3.7 |  |  | 
CCn1nc(C)cc1C(=O)N=c1n(C)c2cc(C(N)=O)ccc2n1CCC(CCn1c(=NC(=O)c2cc(C)nn2CC)n(C)c2cc(C(N)=O)ccc21)OCC(=O)NCCOCCOCCOCCOCCC(=O)NCCOCCOCCOCC(=O)N[C@H]1C[C@@H](C(=O)N[C@@H]2CCCc3ccccc32)N(C(=O)[C@@H](NC(=O)[C@H](C)NC)C2CCCCC2)C1 (some centres unmarked) [Example 18] | 3.5 |  |  | 
CCn1nc(C)cc1C(=O)N=c1n(C)c2cc(C(N)=O)ccc2n1CCC(CCn1c(=NC(=O)c2cc(C)nn2CC)n(C)c2cc(C(N)=O)ccc21)OCC(=O)NCCOCCOCCOCCOCCOCC(=O)N[C@H]1C[C@@H](C(=O)N[C@@H]2CCCc3ccccc32)N(C(=O)[C@@H](NC(=O)[C@H](C)NC)C2CCCCC2)C1 (some centres unmarked) [Example 13] | 4.1 |  |  | 
